Assay results reported in patent US20250115569A1, “SULFONAMIDE COMPOUNDS FOR THE TREATMENT OF NEUROLOGICAL CONDITIONS” (LARIO THERAPEUTICS LIMITED, priority 2021, published 2025).

Target: T1, Cav2.3 (Homo sapiens, UniProt Q15878)
Experiment: Human Cav2.3 channel calcium-influx assay
Assay type: cell-based
Conditions: Fluo8 fluorescence, HEK-293 T-Rex/Kir2.1/Cav2.3e cells, without pluronic acid, read-out: Cav2.3 (pIC50) (converted)
Method in brief: (§1)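 Signal = peak fluorescence (5–130 s) minus baseline (1–2 s), normalized to neutral (0) and inhibitor (−100) controls as % effect. Depolarization used final 20 mM KCl, 130 mM NaCl, 2 mM CaCl2, after 3 min RT compound exposure (30 μM top, half-log, 8 points, 0.3% DMSO) in doxycycline-induced HEK-293 T-Rex/Kir2.1/Cav2.3e-β4-α2δ1 cells with Fluo8 NW.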

T1 sequence (Q15878 whole entry, looked up): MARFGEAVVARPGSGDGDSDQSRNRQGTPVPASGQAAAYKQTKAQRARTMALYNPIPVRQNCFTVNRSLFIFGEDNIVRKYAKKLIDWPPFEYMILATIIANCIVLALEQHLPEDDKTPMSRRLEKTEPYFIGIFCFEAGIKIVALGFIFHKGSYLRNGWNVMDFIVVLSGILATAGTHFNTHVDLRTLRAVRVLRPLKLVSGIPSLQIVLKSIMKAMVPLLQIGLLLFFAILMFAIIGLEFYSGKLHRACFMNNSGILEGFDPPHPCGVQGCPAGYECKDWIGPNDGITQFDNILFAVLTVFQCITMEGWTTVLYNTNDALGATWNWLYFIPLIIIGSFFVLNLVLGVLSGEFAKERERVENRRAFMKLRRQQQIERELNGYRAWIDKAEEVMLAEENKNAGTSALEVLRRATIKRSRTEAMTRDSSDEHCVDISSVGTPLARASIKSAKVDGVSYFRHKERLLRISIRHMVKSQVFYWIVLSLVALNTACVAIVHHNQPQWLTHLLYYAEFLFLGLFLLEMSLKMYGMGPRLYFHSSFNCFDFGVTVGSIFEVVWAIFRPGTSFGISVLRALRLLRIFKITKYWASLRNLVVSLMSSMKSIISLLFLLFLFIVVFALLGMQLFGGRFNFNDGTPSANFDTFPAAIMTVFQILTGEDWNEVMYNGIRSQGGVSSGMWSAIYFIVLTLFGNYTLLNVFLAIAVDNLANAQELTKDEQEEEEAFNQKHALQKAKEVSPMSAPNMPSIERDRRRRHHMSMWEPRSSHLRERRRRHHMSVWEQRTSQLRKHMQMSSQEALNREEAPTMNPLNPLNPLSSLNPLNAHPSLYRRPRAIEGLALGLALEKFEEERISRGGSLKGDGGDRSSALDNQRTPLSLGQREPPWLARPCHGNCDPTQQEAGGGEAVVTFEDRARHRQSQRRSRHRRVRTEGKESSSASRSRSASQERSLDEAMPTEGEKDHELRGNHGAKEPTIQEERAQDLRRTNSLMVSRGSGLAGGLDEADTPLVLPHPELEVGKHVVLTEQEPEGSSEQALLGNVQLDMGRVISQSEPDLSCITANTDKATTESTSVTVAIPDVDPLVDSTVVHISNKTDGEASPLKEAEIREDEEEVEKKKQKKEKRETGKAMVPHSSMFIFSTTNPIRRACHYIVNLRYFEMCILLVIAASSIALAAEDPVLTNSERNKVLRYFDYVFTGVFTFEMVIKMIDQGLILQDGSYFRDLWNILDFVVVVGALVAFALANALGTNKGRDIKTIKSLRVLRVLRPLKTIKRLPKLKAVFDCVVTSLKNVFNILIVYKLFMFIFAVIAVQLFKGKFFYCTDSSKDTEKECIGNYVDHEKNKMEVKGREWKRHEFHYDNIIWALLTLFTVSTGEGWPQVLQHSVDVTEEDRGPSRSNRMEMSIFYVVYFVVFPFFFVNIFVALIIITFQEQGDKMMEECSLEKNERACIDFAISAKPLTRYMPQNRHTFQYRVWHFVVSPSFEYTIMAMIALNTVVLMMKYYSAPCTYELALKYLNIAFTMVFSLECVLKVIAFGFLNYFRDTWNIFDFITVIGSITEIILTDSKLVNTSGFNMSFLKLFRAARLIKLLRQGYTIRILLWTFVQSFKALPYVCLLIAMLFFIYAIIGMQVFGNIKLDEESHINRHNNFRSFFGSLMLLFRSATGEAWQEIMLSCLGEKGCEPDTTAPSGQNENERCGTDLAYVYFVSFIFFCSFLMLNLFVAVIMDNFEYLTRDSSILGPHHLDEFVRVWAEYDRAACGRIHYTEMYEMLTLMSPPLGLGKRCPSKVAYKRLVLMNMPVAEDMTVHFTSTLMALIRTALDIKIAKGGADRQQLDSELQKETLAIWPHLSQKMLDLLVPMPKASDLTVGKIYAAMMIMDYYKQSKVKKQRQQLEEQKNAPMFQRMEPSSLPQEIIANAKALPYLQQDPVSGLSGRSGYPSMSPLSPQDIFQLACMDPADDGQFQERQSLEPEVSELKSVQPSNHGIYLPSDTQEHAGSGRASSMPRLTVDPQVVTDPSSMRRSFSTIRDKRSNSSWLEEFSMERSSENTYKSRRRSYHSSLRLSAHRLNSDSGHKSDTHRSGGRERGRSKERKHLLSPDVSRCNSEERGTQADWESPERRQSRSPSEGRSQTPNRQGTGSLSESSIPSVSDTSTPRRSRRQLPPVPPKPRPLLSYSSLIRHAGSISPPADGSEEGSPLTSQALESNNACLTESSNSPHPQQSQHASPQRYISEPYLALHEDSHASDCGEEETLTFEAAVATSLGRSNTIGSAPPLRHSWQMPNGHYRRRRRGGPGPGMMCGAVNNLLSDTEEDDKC

Row | IC50 [nM] | Compound
1 | 794 | COc1ccc([C@@H](N(C)S(=O)(=O)c2ccc3nccn3c2)C(F)(F)F)cc1 [Example 203, (R)—N-methyl-N-(2,2,2-trifluoro-1-(4-methoxyphenyl)ethyl)imidazo[1,2-a]pyridine-6-sulfonamide]
2 | 759 | CN([C@H](c1ccc(Cl)cc1)C(F)(F)F)S(=O)(=O)c1cc2nncn2cn1 [Example 204, (R)—N-(1-(4-chlorophenyl)-2,2,2-trifluoroethyl)-N-methyl-[1,2,4]triazolo[4,3-c]pyrimidine-7-sulfonamide]
3 | 191 | CN([C@H](c1ccc(Cl)cc1)C(F)(F)F)S(=O)(=O)c1cccnn1 [Example 209, (R)—N-(1-(4-chlorophenyl)-2,2,2-trifluoroethyl)-N-methylpyridazine-3-sulfonamide]
4 | 105 | Cc1ccc([C@@H](N(C)S(=O)(=O)c2cncc(C#N)c2)C(F)(F)F)cc1 [Example 225, (R)-5-cyano-N-methyl-N-(2,2,2-trifluoro-1-(p-tolyl)ethyl)pyridine-3-sulfonamide]
5 | 35.5 | [2H][C@@](c1ccc(Cl)cc1)(N(C)S(=O)(=O)c1cncc(C#N)c1)C(F)(F)F [Example 242, N-(1-(4-chlorophenyl)-2,2,2-trifluoroethyl-1-d)-5-cyano-N-methylpyridine-3-sulfonamide]
6 | 22.9 | CCN([C@H](c1ccc(OC)cc1)C(F)(F)F)S(=O)(=O)c1cncc(F)c1 [Example 257, (R)—N-ethyl-5-fluoro-N-(2,2,2-trifluoro-1-(4-methoxyphenyl)ethyl)pyridine-3-sulfonamide]
7 | 3550 | CCN([C@@H](c1ccc(F)cc1)C(F)(F)F)S(=O)(=O)c1cncc(F)c1 [Example 260, (S)—N-ethyl-5-fluoro-N-(2,2,2-trifluoro-1-(4-fluorophenyl)ethyl)pyridine-3-sulfonamide]
8 | 11.7 | CCN([C@H](c1ccc(F)cc1)C(F)(F)F)S(=O)(=O)c1cncc(F)c1 [Example 261, (R)—N-ethyl-5-fluoro-N-(2,2,2-trifluoro-1-(4-fluorophenyl)ethyl)pyridine-3-sulfonamide]
9 | 302 | Cc1cc([C@@H](N(C)S(=O)(=O)c2cncc(C#N)c2)C(F)(F)F)ccc1C(F)(F)F [Example 269, (R)-5-cyano-N-methyl-N-(2,2,2-trifluoro-1-(3-methyl-4-(trifluoromethyl)phenyl)ethyl)pyridine-3-sulfonamide]

The remaining lines, values behind:

Row | Compound | IC50 [nM]
10 | CN([C@H](c1ccc(Cl)cc1)C(F)(F)F)S(=O)(=O)c1cnc2ccnn2c1 [Example 201, (R)—N-(1-(4-chlorophenyl)-2,2,2-trifluoroethyl)-N-methylpyrazolo[1,5-a]pyrimidine-6-sulfonamide] | 427
11 | CN([C@H](c1ccc(Cl)cc1)C(F)(F)F)S(=O)(=O)c1ccn2nncc2c1 [Example 202, (R)—N-(1-(4-chlorophenyl)-2,2,2-trifluoroethyl)-N-methyl-[1,2,3]triazolo[1,5-a]pyridine-5-sulfonamide] | 288
12 | CN([C@H](c1ccc(Cl)cc1)C(F)(F)F)S(=O)(=O)c1ccc(O)nn1 [Example 208, (R)—N-(1-(4-chlorophenyl)-2,2,2-trifluoroethyl)-6-hydroxy-N-methylpyridazine-3-sulfonamide] | 1050
13 | COc1ccc([C@@H](N(C)S(=O)(=O)c2cncc(F)c2)C(F)(F)F)cc1 [Example 221, (R)-5-fluoro-N-methyl-N-(2,2,2-trifluoro-1-(4-methoxyphenyl)ethyl)pyridine-3-sulfonamide] | 234
14 | Cc1ccc([C@@H](N(C)S(=O)(=O)c2cncc(F)c2)C(F)(F)F)cc1 [Example 222, (R)-5-fluoro-N-methyl-N-(2,2,2-trifluoro-1-(p-tolyl)ethyl)pyridine-3-sulfonamide] | 245
15 | CN([C@H](c1ccc(F)cc1)C(F)(F)F)S(=O)(=O)c1cncc(F)c1 [Example 223, (R)-5-fluoro-N-methyl-N-(2,2,2-trifluoro-1-(4-fluorophenyl)ethyl)pyridine-3-sulfonamide] | 145
16 | [2H]C([2H])([2H])N([C@H](c1ccc(Cl)cc1)C(F)(F)F)S(=O)(=O)c1cncc(C#N)c1 [Example 227, (R)—N-(1-(4-chlorophenyl)-2,2,2-trifluoroethyl)-5-cyano-N-(methyl-d3)pyridine-3-sulfonamide] | 28.2
17 | COc1cc(S(=O)(=O)N(C)[C@H](c2ccc(Cl)cc2)C(F)(F)F)c(OC)nn1 [Example 228, (R)—N-(1-(4-chlorophenyl)-2,2,2-trifluoroethyl)-3,6-dimethoxy-N-methylpyridazine-4-sulfonamide] | 891
18 | CN([C@H](c1ccc(C(F)(F)F)cc1)C(F)(F)F)S(=O)(=O)c1cnc2ccccn12 [Example 235, (R)—N-methyl-N-(2,2,2-trifluoro-1-(4-(trifluoromethyl)phenyl)ethyl)imidazo[1,2-a]pyridine-3-sulfonamide] | 31.6
19 | CCN([C@H](c1ccc(C(F)(F)F)cc1)C(F)(F)F)S(=O)(=O)c1cnc2ccccn12 [Example 237, (R)—N-ethyl-N-(2,2,2-trifluoro-1-(4-(trifluoromethyl)phenyl)ethyl)imidazo[1,2-a]pyridine-3-sulfonamide] | 30.2
20 | CN([C@H](c1ccc(OC(F)F)cc1)C(F)(F)F)S(=O)(=O)c1cncc(C#N)c1 [Example 240, (R)-5-cyano-N-(1-(4-(difluoromethoxy)phenyl)-2,2,2-trifluoroethyl)-N-methylpyridine-3-sulfonamide] | 162
21 | CN([C@H](c1ccc(OC(F)(F)F)cc1)C(F)(F)F)S(=O)(=O)c1cncc(C#N)c1 [Example 241, (R)-5-cyano-N-methyl-N-(2,2,2-trifluoro-1-(4-(trifluoromethoxy)phenyl)ethyl)pyridine-3-sulfonamide] | 105
22 | CCN([C@@H](c1ccc(OC)cc1)C(F)(F)F)S(=O)(=O)c1cncc(F)c1 [Example 256, (S)—N-ethyl-5-fluoro-N-(2,2,2-trifluoro-1-(4-methoxyphenyl)ethyl)pyridine-3-sulfonamide] | 4270
23 | CCN([C@H](c1ccc(F)cc1)C(F)(F)F)S(=O)(=O)c1cnccn1 [Example 265, (R)—N-ethyl-N-(2,2,2-trifluoro-1-(4-fluorophenyl)ethyl)pyrazine-2-sulfonamide] | 39.8
24 | CCN([C@H](c1ccc(C(F)(F)F)c(C)c1)C(F)(F)F)S(=O)(=O)c1cncc(C#N)c1 [Example 268, (R)-5-cyano-N-ethyl-N-(2,2,2-trifluoro-1-(3-methyl-4-(trifluoromethyl)phenyl)ethyl)pyridine-3-sulfonamide] | 468
25 | Cc1cc([C@@H](N(C)S(=O)(=O)c2cncc(F)c2)C(F)(F)F)ccc1C(F)(F)F [Example 270, (R)-5-fluoro-N-methyl-N-(2,2,2-trifluoro-1-(3-methyl-4-(trifluoromethyl)phenyl)ethyl)pyridine-3-sulfonamide] | 490
26 | CCN([C@H](c1ccc(C(F)(F)F)c(C)c1)C(F)(F)F)S(=O)(=O)c1cncc(F)c1 [Example 271, (R)—N-ethyl-5-fluoro-N-(2,2,2-trifluoro-1-(3-methyl-4-(trifluoromethyl)phenyl)ethyl)pyridine-3-sulfonamide] | 162
27 | CN([C@@H](c1ccc(F)cc1)C(F)(F)F)S(=O)(=O)c1cncc(C#N)c1 [Example 273, (S)-5-Cyano-N-methyl-N-(2,2,2-trifluoro-1-(4-fluorophenyl)ethyl)pyridine-3-sulfonamide] | 1480
28 | CN([C@H](c1ccc(F)cc1)C(F)(F)F)S(=O)(=O)c1cncc(C#N)c1 [Example 274, (R)-5-Cyano-N-methyl-N-(2,2,2-trifluoro-1-(4-fluorophenyl)ethyl)pyridine-3-sulfonamide] | 100

System: Human Cav2.3 channel
Experiment: Human Cav2.3 channel calcium-influx assay
Assay type: cell-based
Conditions: Fluo8 fluorescence, HEK-293 T-Rex/Kir2.1/Cav2.3e cells, without pluronic acid
Method in brief: as §1

Row | Cav2.3 (pIC50) | Compound
29 | 6.14 | CN(C(c1ccc(F)cc1)C(F)(F)F)S(=O)(=O)c1ccc(C#N)s1 (stereo not shown) [Example 2, 5-cyano-N-methyl-N-(2,2,2-trifluoro-1-(4-fluorophenyl)ethyl)thiophene-2-sulfonamide]

Target: T1, Cav2.3
Experiment: Whole-cell patch clamp assay (QPatch) in HEK-293 T-Rex/Kir2.1/Cav2.3e-β4-α2δ1 cells
Assay type: cell-based
Conditions: QPatch 16X, room temperature, mean ± S.E, read-out: Cav2.3 (pIC50) (converted)
Procedure: HEK-293 T-Rex/Kir2.1/Cav2.3e-β4-α2δ1 cells were seeded 96 hours before experiment and doxycycline at 0.2 μg/mL was added 24 hours before experiment. Just before the experiments cells were washed twice with D-PBS w/o Ca^2+/Mg^2+ and gently detached from the flask with Detachin. Cells were then re-suspended in the suspension solution (25 mL EX-CELL ACF CHO medium; 0.25 mL of 100× Penicillin/Streptomycin) and placed on the Automated Patch-clamp platform (QPatch 16X).
Standard whole-cell voltage clamp experiments were performed at room temperature using the single hole technology and the following intracellular and extracellular solutions (ICS and ECS, respectively) were used. ICS (mM): CsF 60, CsCl 50, NaCl 10, EGTA 20, BAPTA 5, HEPES 10, NaGTP 0.3, MgATP 5 (pH 7.2; ECS (mM): NMDG-Cl 120, BaCl2 20, HEPES 10, EGTA 7 (pH 7.4). After establishment of the seal and the passage in the whole-cell configuration, the Cav2.3 dependent current was evoked by challenging the cells with the following voltage protocol: the plasma membrane was held at −80 mV then a 50 ms-long depolarizing pulse at 0 mV, followed by a 50 ms-long hyperpolarizing pulse at −100 mV were applied and finally the plasma membrane was held back to −80 mV. This voltage protocol was applied every 10 seconds. Cav2.3 dependent current was first measured in control condition (vehicle, 0.1% DMSO), in the presence of increasing concentration of the compound under investigation and finally SNX 482 was added to fully block any R-type Cav2.3 dependent current.
For data collection, the Sophion proprietary software was used while the analysis was performed off-line using Excel and GraphPad Prism. The inward current (Area Under Curve) measured during each depolarizing pulse was normalized to cell membrane capacitance (Cm) to obtain the average inward current density in each condition (control, compound under investigation and SNX 482). Then, the inhibitory effect of the compound under investigation was evaluated as % of the remaining inward current, normalized to the internal control. […] All data were expressed as mean±S.E

Row | IC50 [nM] | Compound
30 | 42.7 | CCN([C@H](c1ccc(F)cc1)C(F)(F)F)S(=O)(=O)c1cncc(F)c1 (stereo in doubt) [Example 219, N-ethyl-5-fluoro-N-(2,2,2-trifluoro-1-(4-fluorophenyl)ethyl)pyridine-3-sulfonamide]
31 | 1480 | CN(C(c1ccc(F)cc1)C(F)(F)F)S(=O)(=O)c1ccc(C#N)s1 (stereo not shown) [Example 2, 5-cyano-N-methyl-N-(2,2,2-trifluoro-1-(4-fluorophenyl)ethyl)thiophene-2-sulfonamide]
